# Experimental data reported in patent publication US11717578B2, “Undecylenic acid-based nanocarriers for targeted drug delivery” (University of Cincinnati, priority 2017, dated 2023).
# Tested on: Reactive Oxygen Species (ROS)
# Experiment: DPBF assay of photodynamic and sonodynamic ROS generation
# Settings: complexed with mPEG-UA nanocarrier vesicles
# From the text: Photodynamic Reactive Oxygen Species (ROS) were generated by irradiation of red/green/blue (RGB) LEDs at 8 mW/cm^2 and detected by the 1,3-diphenylisobenzofuran (DPBF) assay. A photoreactive iron complex (Fe3[diCl-Sal-AHA]3OCH3 Na) from the Baldwin Lab (UC Chemistry) was employed as the photosensitizer and complexed with the mPEG-UA nanocarrier vesicles.
Substance,"sonodynamic ROS generation (sonication at 1.0 MHz, 3 W/cm^2)",photodynamic ROS generation (RGB LEDs at 8 mW/cm^2)
sodium copper chlorophyllin,Sonodynamic ROS were generated,
Fe3[diCl-Sal-AHA]3OCH3 Na,,photodynamic ROS are generated
